Source: patent publication EP4438596A1, “DIAMINOPYRIMIDINE DERIVATIVES AS HDAC AND DHFR DUAL-TARGETING INHIBITORS AND USE THEREOF IN PREVENTING AND TREATING MALARIA” (Université de Lille, priority 2023, dated 2024)
Like-named read-outs stand apart in the source and are kept apart here.

Legend:
[1] = tested on: P. falciparum 3D7-infected erythrocytes; experiment: Plasmodium falciparum growth inhibition assay (SYBR Green I, flow cytometry), drug-sensitive strain; format: cell-based; conditions: Plasmodium falciparum, 3D7, Erythrocyte, 48 h incubation
Method: (§1) Plates were incubated under standard P. falciparum culture conditions for 48 h. […] Fixed parasitized red blood cells (RBC) were stored at 4 °C in the dark until flow cytometry analysis. Parasite growth was assessed by flow cytometry on a BD FACS Cantoll (BD Biosciences) or a Attune™ NxT Flow Cytometer (Invitrogen). Cell doublets were excluded from the analysis using a forward scatter (FSC)-width versus FSC-area dot plot. Infected and uninfected erythrocytes were gated on the basis of their FSC and side scatter (SSC) signals. Fluorescence analysis (Green fluorescence FITC) was performed using BD FACSDiva software (BD Biosciences) on a total of 200,000 acquired events. […] Fluorescence of non-infected RBC was adjusted to plot between 10° and 10^2. Results are expressed as the percentage of growth inhibition.
(§2) All IC50 values were calculated using log-linear interpolation (www.antimalarial-icestimator.net), with mean values (± SD) determined over at least two independent experiments.

[2] = tested on: P. berghei ANKA parasites; experiment: Peters 4-day suppressive test, oral efficacy in P. berghei-infected mice; format: in vivo, Plasmodium berghei; conditions: for activity in vivo against Plasmodium berghei / number of mice showing blood parasites / parasitemia (mean ± sd): Balb/C mice; for parasites in treated mice, follow-up: until the end of the experiments; for parasite clearance after oral administration: 10 mg/kg
Method: Compounds powder was dissolved in DMSO and sonicated for 10 min. Appropriate volume of 50%W/v HPβCD was added dropwise under gentle swirling. After 10 min sonication, DPBS was added dropwise under gentle swirling and the mixture was sonicated again for 10 min. After checking the pH (5.5 - 7), the solution was filtered (0.22µm) and conserved at room temperature for max 2 days. Final concentration of compounds was 2.5 mg/mL, 1 mg/mL or 0.1 mg/mL for mice treatment with 25 mg/kg, 10 mg/kg or 1mg/kg doses.
10 weeks-old Balb/C male mice were purchased from Janvier Labs.
P. berghei ANKA parasites stabilates conserved in liquid nitrogen were thawed and injected intraperitoneally (ip) into 2-3 mice (10^6 infected red blood cells (RBC) / mouse). When parasitemia reached 3-5%, mice were bled and groups of six BALB/c male mice were infected with 10^6 P. berghei ANKA parasites (day 0), and treated per os (p.o.) twice a day on days 0, 1, 2 and 3. […] On day 4 post infection (p.i.), the peripheral blood parasitemia of all mice was evaluated via microscopic examination of Giemsa-stained thin blood smears. Parasitemia was then followed for two weeks.

[3] = tested on: multidrug-resistant P. falciparum line Dd2; experiment: Plasmodium falciparum growth inhibition assay (SYBR Green I, flow cytometry), multidrug-resistant line; format: cell-based; conditions: line resistant to CQ, PYR and mefloquine, mean ± SD
Method: as §1, §2

HEK293 cells = experiment: Cytotoxicity on HEK293 cells (Alamar Blue); format: cell-based, Human; conditions: ratio of the minimum inhibitory concentration of HEK293 cells (50 µM) to the IC50 of Pf3D7
Method: Cells were seeded out at 1.5 × 10^3 cells per well in a 96-well cell culture plate (TPP, Switzerland).
After 24 h, Alamar Blue reagent (Invitrogen, CA) was added according to the manufacturer's instructions and incubated again for 21 h before samples were analyzed.

[4] = mean ± SD, n ≥ 2, read-out: Pf3D7 IC50
[5] = Experiment 3, 1 mg/kg p.o. twice a day on days 0-3, day 4 p.i.
[6] = Experiment 3, 1 mg/kg p.o. twice a day on days 0-3, day 5 p.i.
[7] = Experiment 3, 1 mg/kg p.o. twice a day on days 0-3, day 6 p.i.
[8] = Experiment 3, 1 mg/kg p.o. twice a day on days 0-3, day 7 p.i.
[9] = Experiment 3, 1 mg/kg p.o. twice a day on days 0-3, day 8 p.i.
[10] = Experiment 3, 1 mg/kg p.o. twice a day on days 0-3, day 10 p.i.
[11] = Experiments 1 and 2, 10 mg/kg p.o. twice a day on days 0-3, day 4 p.i.
[12] = Experiments 1 and 2, 10 mg/kg p.o. twice a day on days 0-3
[13] = Plasmodium falciparum, DD2, 48 h, n ≥ 2, read-out: PfDd2 IC50
[14] = Experiment 2 (Fig. 2), 10mg/kg orally twice a day on days 0,1,2,3

Compound | IC50 [1, 4] | IC50 ([1]; read-out: IC50 (Pf3D7)) | parasites in treated mice [2, 5] | number of mice showing blood parasites [2, 5] | parasitemia (mean ± sd) [2, 5] | number of mice showing blood parasites [2, 6] | parasitemia (mean ± sd) [2, 6] | number of mice showing blood parasites [2, 7] | parasitemia (mean ± sd) [2, 7] | number of mice showing blood parasites [2, 8] | parasitemia (mean ± sd) [2, 8] | number of mice showing blood parasites [2, 9] | parasitemia (mean ± sd) [2, 9] | number of mice showing blood parasites [2, 10] | parasitemia (mean ± sd) [2, 10] | parasites in treated mice [2, 11] | parasites in treated mice, follow-up [2, 12] | parasite clearance after oral administration [2] | IC50 [3, 13] | Selectivity Index HEK293 / Pf3D7 (HEK293 cells) | also measured
CCc1nc(N)nc(N)c1OCCCOc1ccccc1CCC(=O)NO.Cl [1·HCl, 3-(2-[3-(2,4-Diamino-6-ethylpyrimidin-5-yloxy)propoxy]phenyl)-N-hydroxypropanamide hydrochloride] | 0.17 ± 0.018 nM | < 0.2 nM | undetectable | 0/6 | 0% | 1/6 | 0,07 ± 0,16% | 1/6 | 0,15 ± 0,37% | 1/6 | 0,31 ± 0,76% | 1/6 | 1,31 ± 3,21% | 1/6 | 0,7 ± 1,72% | undetectable | remained undetectable | achieved parasite clearance | 19.8 ± 0.9 nM | – | activity in vivo against Plasmodium berghei ([2]; Experiment 1 (Fig. 1), 10mg/kg and 25mg/kg orally twice a day on days 0,1,2,3): active in vivo
CCc1nc(N)nc(N)c1OCCOc1ccccc1CCC(=O)NO.Cl [2·HCl, 3-(2-[2-(2,4-Diamino-6-ethylpyrimidin-5-yloxy)ethoxy]phenyl)-N-hydroxypropanamide hydrochloride] | 11.4 ± 7.9 nM | – | – | – | – | – | – | – | – | – | – | – | – | – | – | – | – | – | – | > 4.4E+06 | –
CCc1nc(N)nc(N)c1OCCCOc1cccc(C(=O)NO)c1.Cl [8·HCl, 3-[3-(2,4-Diamino-6-ethylpyrimidin-5-yloxy)propoxy]-N-hydroxybenzamide hydrochloride] | 0.845 ± 0.108 nM | – | undetectable | 0/6 | 0% | 0/6 | 0% | 2/6 | 0,08 ± 0,13% | 2/6 | 0,32 ± 0,49% | 3/6 | 1,37 ± 2,07% | 4/6 | 2,41 ± 2,84% | undetectable | remained undetectable | achieved parasite clearance | 138 nM | – | activity in vivo against Plasmodium berghei [2, 14]: active in vivo; ranking of activity against P. berghei infection ([2]; Experiment 3, 1 mg/kg p.o. twice a day on days 0-3): most active; IC50 ([3]; 48 h, n ≥ 2, listed as 8, hydrochloride, read-out: PfDd2 IC50): 138 ± 25.4 nM
CCc1nc(N)nc(N)c1OCCCOc1ccccc1/C=C/C(=O)NO.Cl [13·HCl, (E)-3-{2-[3-(2,4-Diamino-6-ethylpyrimidin-5-yloxy)propoxy]phenyl}-N-hydroxyacrylamide hydrochloride] | 0.081 ± 0.043 nM | < 0.1 nM | – | 2/6 | – | 3/6 | 0,55 ± 0,83% | 4/6 | 2,05 ± 2,37% | 5/6 | 2,39 ± 2,22% | 5/6 | 3,94 ± 3,06% | 5/5 | 6,02 ± 2,66% | undetectable | remained undetectable | achieved parasite clearance | 11.1 ± 7.2 nM | – | activity in vivo against Plasmodium berghei [2, 14]: active in vivo; parasitemia (mean ± sd) ([2]; Experiment 3, 1 mg/kg p.o. twice a day on days 0-3, day 4 p.i., hydrochloride, 1 mg/kg): 0,12 ± 0,18%; parasitemia (mean ± sd) ([2]; Experiment 3, 1 mg/kg p.o. twice a day on days 0-3, day 4 p.i., listed as 13, hydrochloride, 1 mg/kg): 0.12%
CCc1nc(N)nc(N)c1OCCCOc1cccc(C(=O)NOCc2ccccc2)c1 [Compound 12, N-(Benzyloxy)-3-[3-(2,4-diamino-6-ethylpyrimidin-5-yloxy)propoxy]benzamide] | 4.84 ± 1.05 nM | – | – | – | – | – | – | – | – | – | – | – | – | – | – | – | – | – | – | > 1.0E+07 | –
